Measured values published in patent US11591326B2, “Inhibitors of protein arginine methyltransferase 5 (PRMT5), pharmaceutical products thereof, and methods thereof” (PHARMABLOCK SCIENCES (NANJING), INC., priority 2018, dated 2023).
Where two headings read alike, the source gives them in different places.

Tests used:
SNU398 = experiment: Liver cancer panel proliferation inhibition, SNU398; type: cell-based; details: Homo sapiens
Experimental: (§1) Inhibitory ability of compounds synthesized on the proliferation of three panels of cancer cell lines, including 5 breast cancer, 6 liver cancer, and 3 lung cancer cell lines were evaluated. Exponentially growing cells were seeded in the media of choice at various cell densities in 384-well plates with 20 ul per well and incubated overnight at 37° C., 5% CO2 incubator. Compounds were prepared as 10-point, 3-fold serial dilutions in DMSO, beginning at 6 mM. 1 μl of DMSO solutions from the compound stock plates were added to 99 ul of cell media (final top concentration of compound in the assay was 30 uM and the final concentration of DMSO was 0.5%). 20 μL of compound solutions in media were added to each well of plates with cells seeded. After adding compound solutions, assay plates were incubated for 8 and 12 days, respectively, at 37° C., 5% CO2. During this incubation period, cell media was changed every 4 days. After removing old media from cell plates, 40 ul of media with testing compounds dissolved, which were prepared by adding 1 ul of compound DMSO serial solutions to 199 ul of cell media, were added to the assay plates with the same layout as they were initially prepared. After 8 or 12 days, cell viability was measured using the CellTiter-Glo assay kit from Promega (Madison, Wis., USA) by quantitating the ATP present in the cell cultures. 20 μL of CellTiter-Glo reagent was added to each well of the cell plates. Luminescence was read after 10 minute of incubation with the Envision multiple plate reader from PerkinElmer (Waltham, Mass., USA). The concentrations of compounds inhibiting cell viability by 50% (IC50 values) were determined using a sigmoidal dose-response model (variable slopes, four parameters) in Prism 7 (La Jolla, Calif., USA).

Glioblastoma U-251 cell = experiment: Cell proliferation inhibition, U-251 (CellTiter-Glo); type: cell-based; details: Homo sapiens, U-251, incubated for 12 days (read after 8 or 12 days)
Description: Materials and Cell Lines: Z-138, U251, and MIA PaCa2 cells were purchased from ATCC (American Type Culture Collection, Manassas, Va.) and Chinese Academy of Science (Shanghai, China). Iscove's Modified Dulbecco's Medium (IMDM), Dulbecco's Modified Eagle Medium (DMEM), penicillin-streptomycin, heat inactivated fetal bovine serum (FBS), and horse serum was purchased from ThermoFisher, Waltham, Mass., USA. Corning 96- and 384-well cell culture plates were purchased from ThermoFisher, Waltham, Mass., USA. Cell-Titer Glo® was purchased from Promega Corporation, Madison, Wis., USA.
In order to evaluate the inhibitory ability of compounds synthesized on the proliferation of the Glioblastoma U-251 cell, exponentially growing cells were seeded in the cell culture media of DMEM with 10% FBS and 1% penicillin-streptomycin at a concentration of 10000 cells/ml in a 384-well plate with 20 ul per well and incubated overnight at 37° C., 5% CO2 incubator. Compounds were prepared as 10-point, 3-fold serial dilutions in DMSO, beginning at 6 mM. 1 μl of DMSO solutions from the compound stock plates were added to 99 ul of cell culture media (final top concentration of compound in the assay was 30 uM and the final concentration of DMSO was 0.5%). 20 μL of compound solutions in media were added to each well of U-251 cell plates. After adding compound solutions, assay plates were incubated for 12 days at 37° C., 5% CO2. During this incubation period, cell culture media with freshly dissolved testing compounds was changed every 4 days. After removing old media from cell plates, 40 ul of media with testing compounds dissolved, which were prepared by adding 1 ul of compound DMSO serial solutions to 199 ul of cell media, were added to the assay plates with the same layout as they were initially prepared. After 8 or 12 days, cell viability was measured using the CellTiter-Glo assay kit from Promega (Madison, Wis., USA) by quantitating the ATP present in the cell cultures. 20 μL of CellTiter-Glo reagent was added to each well of the cell plates. Luminescence was read after 10 minute of incubation with the Envision multiple plate reader from PerkinElmer (Waltham, Mass., USA). The concentrations of compounds inhibiting cell viability by 50% (IC50 values) were determined using a sigmoidal dose-response model (variable slopes, four parameters) in Prism 7 (La Jolla, Calif., USA).

[1] = Pharmacokinetic study in rat; type: in vivo, Male SD rats; details: male, SD; for plasma clearance / Vd: 2 mg/kg, Rat PK (IV) 2 mpk; for plasma clearance: read-out: Clint (converted); for Vd / AUC(0-t) / Cmax / Tmax / bioavailability / half-life: plasma; for Vd: read-out: Vss; for AUC(0-t) / Cmax / Tmax / bioavailability / half-life: 10 mg/kg, Rat PK (PO) 10 mpk; for half-life: read-out: T½ (converted)
Experimental: Male SD rats (185-265 g; purchased from Shanghai SLAC laboratory animal CO. LTD; n=18, with 3 per compound) were treated with a single dose of compounds being tested at 2 mg/kg by intravenous tail-vein injection and 10 mg/kg by oral gavage administration, with both doses formulated in 5% DMSO+45% PEG400 in water. Animals upon PO administration were fasted overnight and fed 4 hours after dosing. Animals upon IV administration were free access to food and water. The study was performed in accordance with the guidelines and standards of the Association for Assessment and Accreditation of Laboratory Animal Care (AAALAC International) and the National Institutes of Health.
The animal is restrained manually. Approximately 150 μL whole blood/time point is collected in K2EDTA tube via tail vein. Blood sample will be put on ice and centrifuged at 2000 g for 5 min to obtain plasma sample within 15 minutes. Plasma samples were stored at approximately −70° C. until analysis. An aliquot of 20 μL sample was added with 200 μL IS (Diclofenac, 100 ng/mL) in ACN. The mixture was vortexed for 10 min and centrifuged at 5800 rpm for 10 min. An aliquot of 1 μL supernatant was injected for LC-MS/MS analysis. For 10×-diluted sample, an aliquot of 2 μL sample was added with 18 μL blank plasma. The sample preparation procedure is same with no-diluted sample. Standard calibration curves were constructed by analyzing a series of control plasma aliquots containing Diclofenac (100 ng/mL) as an internal standard and 1.0-3,000 ng/mL testing compounds. Compound concentrations were determined with UPLC-MS/MS-22 (Triple Quad™ 6500).

EBC-1 = experiment: Lung cancer panel proliferation inhibition, EBC-1; type: cell-based; details: Homo sapiens
Experimental: as §1

A-549 = experiment: Lung cancer panel proliferation inhibition, A-549; type: cell-based; details: Homo sapiens
Experimental: as §1

[2] = SNU-398, 192 h, SNU398, 8 days, read-out: IC50 (μM) 8 days
[3] = SNU-398, 288 h, SNU398, 12 days, read-out: IC50 (μM) 12 days
[4] = 192 h, EBC-1, 8 days, read-out: IC50 (μM) 8 days
[5] = 288 h, EBC-1, 12 days, read-out: IC50 (μM) 12 days
[6] = A549, 192 h, A-549, 8 days, read-out: IC50 (μM) 8 days
[7] = A549, 288 h, A-549, 12 days, read-out: IC50 (μM) 12 days

CC(=O)N1CCC(Nc2ccc3c(c2)C(=O)N(C[C@H](O)CN2CCc4ccccc4C2)CC3)CC1 [Compound 24a, (R)-7-((1-acetylpiperidin-4-yl)amino)-2-(3-(3,4-dihydroisoquinolin-2(1H)-yl)-2-hydroxypropyl)-3,4-dihydroisoquinolin-1(2H)-one]
IC50 (SNU398; [2]): 0.54 µM
IC50 (SNU398; [3]): 0.25 µM
IC50 (Glioblastoma U-251 cell): 0.097 µM
plasma clearance [1]: 31.7 mL/min/kg
Vd [1]: 7.15 ± 2.86 L/kg
AUC(0-t) [1]: 3280 ± 805 ng·h/mL
Cmax [1]: 798 ± 247 ng/mL
Tmax [1]: 1.17 ± 0.764 h
bioavailability [1]: 62 ± 15.1%
half-life [1]: 188 ± 24.9 min
IC50 (EBC-1; [4]): 0.025 µM
IC50 (EBC-1; [5]): 0.03 µM
IC50 (A-549; [6]): 0.064 µM
IC50 (A-549; [7]): 0.037 µM

CC(=O)N1CCC(Nc2ccc3c(c2)C(=O)N(C[C@H](O)CN2CCc4ccccc4C2)CCO3)CC1 [Compound 52a, (R)-7-((1-acetylpiperidin-4-yl)amino)-4-(3-(3,4-dihydroisoquinolin-2(1H)-yl)-2-hydroxypropyl)-3,4-dihydrobenzo[f][1,4]oxazepin-5(2H)-one]
IC50 (SNU398; [2]): 0.45 µM
IC50 (SNU398; [3]): 0.12 µM
IC50 (Glioblastoma U-251 cell): 0.293 µM
plasma clearance [1]: 35.3 mL/min/kg
Vd [1]: 5.02 ± 0.389 L/kg
AUC(0-t) [1]: 2260 ± 764 ng·h/mL
Cmax [1]: 563 ± 233 ng/mL
Tmax [1]: 1.33 ± 0.577 h
bioavailability [1]: 48.1 ± 16.1%
half-life [1]: 181 ± 24.8 min
IC50 (EBC-1; [4]): 0.028 µM
IC50 (EBC-1; [5]): 0.031 µM
IC50 (A-549; [6]): 0.13 µM
IC50 (A-549; [7]): 0.028 µM

CC(=O)N1CCC(Nc2cc(C(=O)NC[C@H](O)CN3CCc4ccccc4C3)ncn2)CC1 [Compound C3, reference compound]
IC50 (SNU398; [2]): 0.83 µM
IC50 (SNU398; [3]): 0.41 µM
IC50 (Glioblastoma U-251 cell): 0.17 µM
plasma clearance [1]: 35.5 mL/min/kg
Vd [1]: 2.17 ± 0.0643 L/kg
AUC(0-t) [1]: 1400 ± 601 ng·h/mL
Cmax [1]: 364 ± 82.5 ng/mL
Tmax [1]: 1.67 ± 0.577 h
bioavailability [1]: 30.5 ± 13%
half-life [1]: 90 ± 7.38 min
IC50 (EBC-1; [4]): 0.062 µM
IC50 (EBC-1; [5]): 0.057 µM
IC50 (A-549; [6]): 0.096 µM
IC50 (A-549; [7]): 0.066 µM
